Converted amounts (≈) assume the structure as drawn. The source made the active and inactive calls. No cut-off for these calls is given here.
What was measured:
MCF7 = experiment: Antiproliferative activity against human MCF7 cells after 3 days by SRB assay; assay type: functional, cell-based; conditions: MCF7, 72 h
[1] = target: Cyclin-dependent kinase 2/cyclin E1 (Homo sapiens, UniProt P24941); experiment: Inhibition of CDK2/cyclin E; assay type: protein-complex assay
[2] = target: T1, High affinity nerve growth factor receptor (Homo sapiens, UniProt P04629); experiment: Inhibition of recombinant TrKa preincubated for 15 mins by HTRF assay
Target sequence in this assay (P04629 whole entry): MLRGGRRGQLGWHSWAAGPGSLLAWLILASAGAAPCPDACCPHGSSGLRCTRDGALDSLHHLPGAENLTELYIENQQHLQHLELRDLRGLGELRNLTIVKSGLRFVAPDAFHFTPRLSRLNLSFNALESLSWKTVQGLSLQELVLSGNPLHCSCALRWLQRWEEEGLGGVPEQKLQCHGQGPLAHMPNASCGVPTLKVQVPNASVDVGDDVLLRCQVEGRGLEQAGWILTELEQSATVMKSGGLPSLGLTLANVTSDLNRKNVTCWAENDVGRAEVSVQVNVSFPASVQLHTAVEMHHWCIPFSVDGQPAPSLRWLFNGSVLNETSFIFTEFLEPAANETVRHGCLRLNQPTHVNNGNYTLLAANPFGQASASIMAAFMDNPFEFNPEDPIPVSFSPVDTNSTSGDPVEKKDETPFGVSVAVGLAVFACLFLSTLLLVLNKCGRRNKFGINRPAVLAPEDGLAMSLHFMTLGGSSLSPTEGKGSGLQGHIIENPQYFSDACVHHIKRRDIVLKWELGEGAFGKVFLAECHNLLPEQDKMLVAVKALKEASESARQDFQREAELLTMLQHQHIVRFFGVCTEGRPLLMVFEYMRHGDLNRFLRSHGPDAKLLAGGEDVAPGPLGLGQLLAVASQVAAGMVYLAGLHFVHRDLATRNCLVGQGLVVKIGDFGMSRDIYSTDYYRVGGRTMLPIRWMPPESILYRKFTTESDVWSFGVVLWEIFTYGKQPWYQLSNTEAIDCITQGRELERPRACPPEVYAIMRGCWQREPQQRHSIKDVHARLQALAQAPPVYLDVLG

[3] = Cell cycle arrest in rat RK3E cells expressing k-ras assessed as accumulation at G2/M phase at 1 uM after 24 hrs using propidium iodide stain by flow cytometry; assay type: functional, cell-based
[4] = Cell cycle arrest in rat RK3E cells expressing k-ras assessed as accumulation at S phase at 1 uM after 24 hrs using propidium iodide stain by flow cytometry; assay type: functional, cell-based
[5] = Cell cycle arrest in rat RK3E cells expressing k-ras assessed as accumulation at sub G0 phase at 2.5 uM after 24 hrs using propidium iodide stain by flow cytometry; assay type: functional, cell-based
RK3E [6] = experiment: Antitumor activity against rat RK3E cells expressing k-ras and GFP/Luc genes transplanted in Sprague-Dawley rat assessed as increase in apoptotic cells at 5 mg/kg, iv administered 5 days after tumor implantation for 5 times measured after 11 days by TUNEL assay relative to control; assay type: functional, organism-based; set-up: dose 5 mg/kg
[7] = Solubility of compound in 2 equimolar NaOH and distilled water; assay type: physicochemical; conditions: buffer
KB = experiment: Antiproliferative activity against human KB cells after 3 days by SRB assay; assay type: functional, cell-based; conditions: 72 h
[8] = target: T1, High affinity nerve growth factor receptor; experiment: Inhibition of recombinant TrKa at 1 uM preincubated for 15 mins by HTRF assay
Target sequence in this assay (P04629 33-796 limits assumed): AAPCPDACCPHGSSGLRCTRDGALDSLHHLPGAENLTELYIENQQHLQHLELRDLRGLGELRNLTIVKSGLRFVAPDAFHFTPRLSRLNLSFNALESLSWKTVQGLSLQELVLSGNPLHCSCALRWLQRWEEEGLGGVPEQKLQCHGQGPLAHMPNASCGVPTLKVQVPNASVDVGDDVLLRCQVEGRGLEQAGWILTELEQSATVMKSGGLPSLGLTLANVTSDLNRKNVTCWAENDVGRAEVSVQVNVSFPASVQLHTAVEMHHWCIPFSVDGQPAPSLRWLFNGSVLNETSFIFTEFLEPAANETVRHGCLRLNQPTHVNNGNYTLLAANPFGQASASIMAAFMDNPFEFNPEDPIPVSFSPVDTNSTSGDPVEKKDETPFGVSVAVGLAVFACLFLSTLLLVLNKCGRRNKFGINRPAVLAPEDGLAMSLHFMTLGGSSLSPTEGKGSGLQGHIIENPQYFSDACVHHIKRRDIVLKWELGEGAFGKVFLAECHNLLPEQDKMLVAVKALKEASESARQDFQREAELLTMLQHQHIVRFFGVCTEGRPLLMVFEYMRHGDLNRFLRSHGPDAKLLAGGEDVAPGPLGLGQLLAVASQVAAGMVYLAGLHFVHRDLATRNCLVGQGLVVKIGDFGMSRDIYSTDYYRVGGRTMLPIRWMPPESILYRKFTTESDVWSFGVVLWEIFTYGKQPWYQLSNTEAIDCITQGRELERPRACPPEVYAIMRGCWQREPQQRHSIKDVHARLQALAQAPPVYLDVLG

[9] = Solubility of compound in 3 equimolar NaOH and 0.1 N NaHCO3 buffer; assay type: physicochemical
[10] = Aqueous solubility of compound in water; assay type: physicochemical; conditions: buffer
[11] = Cell cycle arrest in rat RK3E cells expressing k-ras assessed as accumulation at sub G0 phase at 1 uM after 24 hrs using propidium iodide stain by flow cytometry; assay type: functional, cell-based
[12] = target: Cyclin-dependent kinase 1/cyclin B1 (Homo sapiens) (UniProt P06493+P14635); experiment: Inhibition of CDK1/cyclin B at 1 uM after 40 mins by lequid scintillation counting; assay type: protein-complex assay
Sequence of Cyclin-dependent kinase 1/cyclin B1 (Homo sapiens) (P06493 whole entry, looked up): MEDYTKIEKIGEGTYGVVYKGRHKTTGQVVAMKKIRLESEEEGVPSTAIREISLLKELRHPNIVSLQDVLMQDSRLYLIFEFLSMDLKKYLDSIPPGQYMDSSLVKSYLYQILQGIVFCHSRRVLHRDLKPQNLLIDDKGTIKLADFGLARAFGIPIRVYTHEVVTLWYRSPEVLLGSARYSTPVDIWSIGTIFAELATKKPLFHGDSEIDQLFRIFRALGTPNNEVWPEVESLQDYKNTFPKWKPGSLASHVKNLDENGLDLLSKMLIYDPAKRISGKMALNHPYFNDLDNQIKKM
Sequence of Cyclin-dependent kinase 1/cyclin B1 (Homo sapiens) (P14635 whole entry, looked up): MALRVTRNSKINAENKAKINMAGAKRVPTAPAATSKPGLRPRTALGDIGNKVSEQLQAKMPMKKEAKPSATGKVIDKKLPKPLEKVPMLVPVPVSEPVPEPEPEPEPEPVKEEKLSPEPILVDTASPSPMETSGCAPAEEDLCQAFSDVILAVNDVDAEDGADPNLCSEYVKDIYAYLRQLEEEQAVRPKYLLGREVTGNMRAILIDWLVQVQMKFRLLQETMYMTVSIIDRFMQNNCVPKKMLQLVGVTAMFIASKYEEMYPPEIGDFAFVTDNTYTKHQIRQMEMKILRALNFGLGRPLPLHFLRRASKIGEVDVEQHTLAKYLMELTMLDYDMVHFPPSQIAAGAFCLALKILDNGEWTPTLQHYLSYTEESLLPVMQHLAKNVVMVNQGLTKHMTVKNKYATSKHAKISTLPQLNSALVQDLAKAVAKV

[13] = target: Inhibitor of nuclear factor kappa-B kinase subunit beta (Homo sapiens, UniProt O14920); experiment: Inhibition of recombinant IKK-beta preincubated for 15 mins by HTRF assay
Sequence of Inhibitor of nuclear factor kappa-B kinase subunit beta (O14920 whole entry): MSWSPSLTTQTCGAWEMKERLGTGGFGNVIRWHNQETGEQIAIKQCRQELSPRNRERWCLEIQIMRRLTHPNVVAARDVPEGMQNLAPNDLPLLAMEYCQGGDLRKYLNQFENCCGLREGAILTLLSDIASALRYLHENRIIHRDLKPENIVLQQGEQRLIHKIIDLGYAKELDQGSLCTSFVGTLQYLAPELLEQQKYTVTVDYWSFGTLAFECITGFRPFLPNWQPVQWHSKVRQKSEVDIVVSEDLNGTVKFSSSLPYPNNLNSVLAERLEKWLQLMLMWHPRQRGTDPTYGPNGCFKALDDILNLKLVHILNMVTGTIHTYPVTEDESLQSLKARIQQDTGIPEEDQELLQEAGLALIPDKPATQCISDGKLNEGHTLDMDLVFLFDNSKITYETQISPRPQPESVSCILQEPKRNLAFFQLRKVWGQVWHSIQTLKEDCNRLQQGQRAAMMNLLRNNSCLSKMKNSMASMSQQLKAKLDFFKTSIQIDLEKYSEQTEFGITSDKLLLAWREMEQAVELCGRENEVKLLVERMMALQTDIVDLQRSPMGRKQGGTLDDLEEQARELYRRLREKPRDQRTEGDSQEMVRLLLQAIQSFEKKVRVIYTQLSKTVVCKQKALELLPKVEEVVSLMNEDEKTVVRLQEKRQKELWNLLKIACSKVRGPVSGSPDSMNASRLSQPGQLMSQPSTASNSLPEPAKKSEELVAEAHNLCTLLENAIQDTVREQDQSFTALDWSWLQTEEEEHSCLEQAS

[14] = Cell cycle arrest in rat RK3E cells expressing k-ras assessed as accumulation at G2/M phase at 2.5 uM after 24 hrs using propidium iodide stain by flow cytometry; assay type: functional, cell-based
[15] = target: Cyclin-dependent kinase 1/cyclin B1 (Homo sapiens, UniProt P06493); experiment: Inhibition of CDK1/cyclin B after 40 mins by liquid scintillation counting; assay type: protein-complex assay
Sequence of Cyclin-dependent kinase 1/cyclin B1 (P06493 whole entry): as the sequence (P06493 whole entry, looked up) above
Sequence of Cyclin-dependent kinase 1/cyclin B1 (P14635 whole entry, further chain): as the sequence (P14635 whole entry, looked up) above

RK3E [16] = experiment: Antitumor activity against rat RK3E cells expressing k-ras and GFP/Luc genes transplanted in Sprague-Dawley rat assessed as decrease of tumor growth at 5 mg/kg, iv administered 5 days after tumor implantation for 5 times measured on day 10 by luciferin bioluminescence assay; assay type: functional, organism-based; set-up: dose 5 mg/kg
[17] = Solubility of compound in 3 equimolar NaOH and distilled water; assay type: physicochemical; conditions: buffer
Rattus norvegicus = experiment: Toxicity in rat RK3E cells expressing k-ras and GFP/Luc genes transplanted in Sprague-Dawley rat assessed as change in body weight at 5 mg/kg, iv administered 5 days after tumor implantation for 5 times measured after 48 hrs post dose; assay type: organism-based; set-up: dose 5 mg/kg, route intravenous; conditions: in vivo
[18] = Antitumor activity against rat RK3E cells expressing k-ras and GFP/Luc genes transplanted in Sprague-Dawley rat assessed as decrease in tumor volume at 5 mg/kg, iv administered 5 days after tumor implantation for 5 times measured after 48 hrs post dose relative to control; assay type: functional; set-up: scale not given: the % may be the effect or the level left
[19] = Cell cycle arrest in rat RK3E cells expressing k-ras assessed as accumulation at G0/G1 phase at 2.5 uM after 24 hrs using propidium iodide stain by flow cytometry; assay type: functional, cell-based
[20] = Cell cycle arrest in rat RK3E cells expressing k-ras assessed as accumulation at G0/G1 phase at 1 uM after 24 hrs using propidium iodide stain by flow cytometry; assay type: functional, cell-based
RK3E [21] = experiment: Antitumor activity against rat RK3E cells expressing k-ras and GFP/Luc genes transplanted in Sprague-Dawley rat assessed as decrease of PCNA expression at 5 mg/kg, iv administered 5 days after tumor implantation for 5 times measured after 11 days by immunohistochemical staining relative to control; assay type: functional, organism-based; set-up: dose 5 mg/kg
[22] = target: Cyclin-dependent kinase 2/cyclin E1 (Homo sapiens) (UniProt P24864+P24941); experiment: Inhibition of CDK2/cyclin E as percent residual activity; assay type: protein-complex assay; set-up: Residual activity / inhibition: concentration or dose not given beside the values
[23] = Cell cycle arrest in rat RK3E cells expressing k-ras assessed as accumulation at S phase at 2.5 uM after 24 hrs using propidium iodide stain by flow cytometry; assay type: functional, cell-based

O=C1Nc2ccc([N+](=O)[O-])cc2/C1=C1/Nc2ccc(O)cc2/C1=N/O
IC50 (MCF7): 1210 nM
IC50 [1]: 1.91 nM
IC50 [2]: 4000 nM
Activity [3]: 8.16%
Activity [4]: 7.96%
Activity [5]: 5.59%
Activity (RK3E [6]): Active
solubility [7]: 2700 µg/mL (≈ 7.98 mM)
IC50 (KB): 1330 nM
inhibition [8]: 9%
solubility [9]: 200 µg/mL (≈ 0.591 mM)
solubility [10]: 10 µg/mL (≈ 0.0296 mM)
Activity [11]: 8.16%
inhibition [12]: Active
IC50 [13]: 10000 nM
Activity [14]: 5.67%
IC50 [15]: 13 nM
Activity (RK3E [16]): Active
solubility [17]: 3000 µg/mL (≈ 8.87 mM)
Activity (Rattus norvegicus): Non-toxic
Activity [18]: 84.3%
Activity [19]: 74.5%
Activity [20]: 57.7%
Activity (RK3E [21]): Active
Residual activity [22]: 90%
Activity [23]: 9.66%

From ChEMBL document CHEMBL1157914, “5,5'-substituted indirubin-3'-oxime derivatives as potent cyclin-dependent kinase inhibitors with anticancer activity” (J Med Chem, 2010)
